Measurements published in US8858997B2, “Formulations and methods for lyophilization and lyophilates provided thereby” (Remedy Pharmaceuticals, Inc., priority 2007, dated 2014).
Converted amounts (≈) assume the structure as drawn. Where two headings read alike, the source gives them in different places. Blank lines part the entries; values can stand above or below the compound they belong to.

What was measured:
[1] = Solubility of glibenclamide in buffered water solutions (Britton Robinson); format: physicochemical
Excerpt: Buffered water solutions (Britton Robinson buffers) were used to determine the amounts of glibenclamide soluble in buffered solutions without added salt or added sugar.

[2] = 0.1 M, pH 10 phosphate-buffered aqueous solution (300 mOsm/L); cited from earlier work
[3] = all measured pH values from pH 4 to pH 9; Britton-Robinson buffer; cited from earlier work
[4] = cited from earlier work
[5] = Solubility studies using micronized glibenclamide: unbuffered 2% sucrose and water; format: physicochemical; conditions: for GLB mg/ml (glibenclamide in solution): 2% sucrose in water; for solubility: aqueous buffer, thermodynamic from solid, water without bulking agent
Description: Micronized glibenclamide in 2% sucrose (as a proxy for glucose, fructose, mannose, galactose, mannitol, sorbitol, lactose, trehalose, and other sugars, including mono-saccharides, di-saccharides) in water was prepared, as recorded in the left-hand column of Table 4. In addition, micronized glibenclamide was prepared in water without a bulking agent (see Table 4, right column). These were unbuffered solutions, so that 1) pH was adjusted to the target value, then 2) glibenclamide was added (which lowered the pH) and then 3) pH was re-adjusted up to the target. This was done iteratively until the pH was stable.

[6] = Solubility studies using micronized glibenclamide: unbuffered saline; format: physicochemical; conditions: thermodynamic from solid
Excerpt: This was done iteratively until pH was stable. “GLB” indicates glibenclamide.

[7] = Stated physicochemical properties (pKa, water and ethanol solubility); conditions: 109 mg/L vs. 4 mg/L

- solubility ([1]; Britton Robinson buffer in water, aqueous buffer, pH 9.000, read-out: GLB mg/mL (glibenclamide in solution)): 0.14 mg/mL (≈ 283 µM)
- solubility ([1]; Britton Robinson buffer in water, pH 9.7, aqueous buffer, pH 9.700, read-out: GLB mg/mL (glibenclamide in solution)): 0.85 mg/mL (≈ 1720 µM)
- solubility ([1]; Britton Robinson buffer, aqueous buffer, pH 5.3, read-out: GLB mg/mL (glibenclamide in solution)): 0.01 mg/mL (≈ 20.2 µM)
- solubility ([1]; Britton Robinson buffer, aqueous buffer, pH 8.000, read-out: GLB mg/mL (glibenclamide in solution)): 0.02 mg/mL (≈ 40.5 µM)
- solubility ([1]; Britton Robinson buffer, aqueous buffer, pH 8.3, read-out: GLB mg/mL (glibenclamide in solution)): 0.02 mg/mL (≈ 40.5 µM)
- solubility ([1]; Britton Robinson buffer, pH 6.2, aqueous buffer, pH 6.200, read-out: GLB mg/mL (glibenclamide in solution)): 0.01 mg/mL (≈ 20.2 µM)
- solubility ([1]; Britton Robinson buffer, pH 7.1, aqueous buffer, pH 7.100, read-out: GLB mg/mL (glibenclamide in solution)): 0.01 mg/mL (≈ 20.2 µM)
- solubility ([1]; Britton Robinson buffer, pH 10.1, aqueous buffer, pH 10.100, read-out: GLB mg/mL (glibenclamide in solution)): 2.35 mg/mL (≈ 4760 µM)
- GLB mg/ml (glibenclamide in solution) ([5]; pH 7.45): 0.051 mg/mL
- GLB mg/ml (glibenclamide in solution) ([5]; pH 7.50): 0.099 mg/mL
- GLB mg/ml (glibenclamide in solution) ([5]; pH 8.24): 0.310 mg/mL
- GLB mg/ml (glibenclamide in solution) ([5]; pH 8.66): 1.069 mg/mL
- GLB mg/ml (glibenclamide in solution) ([5]; pH 9.16): 2.608 mg/mL
- GLB mg/ml (glibenclamide in solution) ([5]; pH 9.53): 3.060 mg/mL
- GLB mg/ml (glibenclamide in solution) ([5]; pH 9.74): 4.103 mg/mL
- GLB mg/ml (glibenclamide in solution) ([5]; pH 11.23): 3.811 mg/mL
- GLB mg/ml (glibenclamide in solution) ([5]; pH 11.30): 3.416 mg/mL
- GLB mg/ml (glibenclamide in solution) ([5]; pH 11.99): 1.904 mg/mL
- solubility ([5]; pH 7.36, read-out: GLB mg/ml (glibenclamide in solution)): 0.019 mg/mL (≈ 38.5 µM)
- solubility ([5]; pH 7.55, read-out: GLB mg/ml (glibenclamide in solution)): 0.096 mg/mL (≈ 194 µM)
- solubility ([5]; pH 8.65, read-out: GLB mg/ml (glibenclamide in solution)): 0.799 mg/mL (≈ 1620 µM)
- solubility ([5]; pH 8.73, read-out: GLB mg/ml (glibenclamide in solution)): 0.087 mg/mL (≈ 176 µM)
- solubility ([5]; pH 9.13, read-out: GLB mg/ml (glibenclamide in solution)): 0.205 mg/mL (≈ 415 µM)
- solubility ([5]; pH 9.57, read-out: GLB mg/ml (glibenclamide in solution)): 3.97 mg/mL (≈ 8030 µM)
- solubility ([5]; pH 10.28, read-out: GLB mg/ml (glibenclamide in solution)): 4.87 mg/mL (≈ 9860 µM)
- solubility ([5]; pH 11.19, read-out: GLB mg/ml (glibenclamide in solution)): 4.67 mg/mL (≈ 9460 µM)
- solubility ([5]; pH 11.44, read-out: GLB mg/ml (glibenclamide in solution)): 4.84 mg/mL (≈ 9800 µM)
- solubility ([5]; pH 12.27, read-out: GLB mg/ml (glibenclamide in solution)): 2.51 mg/mL (≈ 5090 µM)
- solubility ([6]; 0.9% saline in water, pH 8.07, saline or isotonic, Saline 0.9%, pH 8.070, read-out: GLB mg/ml (glibenclamide in solution)): 0.024 mg/mL (≈ 48.6 µM)
- solubility ([6]; 0.9% saline in water, pH 8.44, saline or isotonic, Saline 0.9%, pH 8.440, read-out: GLB mg/ml (glibenclamide in solution)): 0.109 mg/mL (≈ 221 µM)
- solubility ([6]; 0.9% saline in water, pH 9.18, saline or isotonic, Saline 0.9%, pH 9.180, read-out: GLB mg/ml (glibenclamide in solution)): 0.435 mg/mL (≈ 881 µM)
- solubility ([6]; 0.9% saline in water, pH 9.92, saline or isotonic, Saline 0.9%, pH 9.920, read-out: GLB mg/ml (glibenclamide in solution)): 0.42 mg/mL (≈ 850 µM)
- solubility ([6]; 0.9% saline in water, pH 10.48, saline or isotonic, Saline 0.9%, pH 10.480, read-out: GLB mg/ml (glibenclamide in solution)): 0.456 mg/mL (≈ 923 µM)
- solubility ([6]; 0.9% saline in water, pH 11.06, saline or isotonic, Saline 0.9%, pH 11.060, read-out: GLB mg/ml (glibenclamide in solution)): 0.445 mg/mL (≈ 901 µM)
- solubility ([6]; 0.9% saline in water, pH 11.61, saline or isotonic, Saline 0.9%, pH 11.610, read-out: GLB mg/ml (glibenclamide in solution)): 0.538 mg/mL (≈ 1090 µM)
- solubility ([6]; 0.9% saline in water, pH 12.07, saline or isotonic, Saline 0.9%, pH 12.070, read-out: GLB mg/ml (glibenclamide in solution)): 0.476 mg/mL (≈ 964 µM)
- solubility ([6]; 2% saline in water, pH 12.1, saline or isotonic, Saline 2%, pH 12.10, read-out: GLB mg/ml (glibenclamide in solution)): 0.216 mg/mL (≈ 437 µM)
- solubility ([6]; 2% saline in water, saline or isotonic, Saline 2%, pH 7.24, read-out: GLB mg/ml (glibenclamide in solution)): 0.012 mg/mL (≈ 24.3 µM)
- solubility ([6]; 2% saline in water, saline or isotonic, Saline 2%, pH 7.97, read-out: GLB mg/ml (glibenclamide in solution)): 0.028 mg/mL (≈ 56.7 µM)
- solubility ([6]; 2% saline in water, saline or isotonic, Saline 2%, pH 8.34, read-out: GLB mg/ml (glibenclamide in solution)): 0.087 mg/mL (≈ 176 µM)
- solubility ([6]; 2% saline in water, saline or isotonic, Saline 2%, pH 8.89, read-out: GLB mg/ml (glibenclamide in solution)): 0.214 mg/mL (≈ 433 µM)
- solubility ([6]; 2% saline in water, saline or isotonic, Saline 2%, pH 8.94, read-out: GLB mg/ml (glibenclamide in solution)): 0.233 mg/mL (≈ 472 µM)
- solubility ([6]; 2% saline in water, saline or isotonic, Saline 2%, pH 9.49, read-out: GLB mg/ml (glibenclamide in solution)): 0.205 mg/mL (≈ 415 µM)
- solubility ([6]; 2% saline in water, saline or isotonic, Saline 2%, pH 10.31, read-out: GLB mg/ml (glibenclamide in solution)): 0.215 mg/mL (≈ 435 µM)
- solubility ([6]; 2% saline in water, saline or isotonic, Saline 2%, pH 10.98, read-out: GLB mg/ml (glibenclamide in solution)): 0.192 mg/mL (≈ 389 µM)
- solubility ([6]; 2% saline in water, saline or isotonic, Saline 2%, pH 11.49, read-out: GLB mg/ml (glibenclamide in solution)): 0.194 mg/mL (≈ 393 µM)
Structure (SMILES): COc1ccc(Cl)cc1C(=O)NCCc1ccc(S(=O)(=O)NC(=O)NC2CCCCC2)cc1 [Glibenclamide, 5-chloro-N-[2-[4-(cyclohexylcarbamoylsulfamoyl)phenyl]ethyl]-2-methoxy-benzamide]
- solubility [2]: 500 µg/mL (≈ 1010 µM)
- solubility [3]: below 1 mg/mL
- ethanol solubility [4]: 5000 µg/mL

Structure (SMILES): CCOc1cc(CC(=O)N[C@@H](CC(C)C)c2ccccc2N2CCCCC2)ccc1C(=O)O [Repaglinide]
- water solubility ([4]; pH 9): 600 µg/mL (≈ 1330 µM)

- times more soluble in water than glibenclamide [7]: 24 times
Structure (SMILES): CCCCNC(=O)NS(=O)(=O)c1ccc(C)cc1 [Tolbutamide]
- water solubility [4]: 109 µg/mL (≈ 403 µM)
